According to patent US20230348477A1, “ORGANIC COMPOUND, LIGHT-EMITTING DEVICE, LIGHT-EMITTING APPARATUS, AND ELECTRONIC DEVICE” (SEMICONDUCTOR ENERGY LABORATORY CO., LTD., priority 2022, published 2023):
In brackets after ≈: the same amount, converted by molar mass. Entries after “also recorded” stand apart in the source; their conditions may differ.

How the values were obtained:
[1] = Solubility test in water by LC/MS; assay type: physicochemical; conditions: room temperature, one atmosphere; for solubility in water, result in words (LC/MS): 1 mg in 1 mL water
Method: (§1) In this example, the organic compounds synthesized in Examples 1 and 2 are used to explain the solubility of the organic compound of one embodiment of the present invention. The solubility tests of this example were performed at room temperature (RT) at one atmosphere.
In the LC-MS analysis, liquid chromatography (LC) separation was carried out with ACQUITY UPLC manufactured by Waters Corporation, and MS analysis (mass spectrometry) was carried out with Xevo G2 Tof MS manufactured by Waters Corporation. Acquity UPLC BEH C8 (2.1 × 100 mm, 1.7 µm) was used as a column for the LC separation. Acetonitrile was used for Mobile Phase A and a 0.1 % aqueous solution of formic acid was used for Mobile Phase B. The amount of injection of the sample was 5.0 µL. Note that in the analysis, the wavelength of a photodiode array detector was set to 270 nm.
Into a 5 mL sample bottle, 1 mg of 2,6tip2Py was put and 1 mL of chloroform was added thereto. This mixture was irradiated with ultrasonic waves for five minutes. After it was confirmed that the solid was completely dissolved, this solution was diluted by five times with acetonitrile, whereby the concentration of the solution was adjusted to 200 mg/L. This solution was diluted with acetonitrile, whereby a solution with a concentration of 40 mg/L, a solution with a concentration of 20 mg/L, and a solution with a concentration of 10 mg/L were prepared. The prepared solutions were subjected to LC/MS, and the peak area values derived from 2,6tip2Py, which were obtained at the respective solution concentrations, were used to form calibration curves.
Into a 5 mL sample bottle, 1 mg of 2,6tip2Py was put and 1 mL of water was added thereto. This mixture was irradiated with ultrasonic waves for five minutes. This mixture was filtered through a membrane filter to remove the solid, and the resulting filtrate was diluted by five times with acetonitrile. The obtained solution was subjected to LC/MS.
Into a 5 mL sample bottle, 1 mg of 2,7tip2SF was put and 1 mL of water was added thereto. This mixture was irradiated with ultrasonic waves for five minutes. […]

[2] = Solubility test in water by visual inspection; assay type: physicochemical; conditions: room temperature, one atmosphere; for solubility in water, result in words (visual inspection): about 1.2 mg sample, water added in 10 mL steps (tip compounds)
Method: as §1
(§2) Into a 110 mL sample bottle, 1.21 mg of 2,6tip2Py was put and 10 mL of water was added thereto. This mixture was irradiated with ultrasonic waves for one minute. A precipitated white powder was found by visual inspection for an insoluble residue. After further addition of 10 mL of water and one-minute ultrasonic wave irradiation, a precipitated white powder was found by visual inspection. This procedure was repeated until the dissolution was confirmed by visual inspection.
Into a 110 mL sample bottle, 1.23 mg of 2,7tip2SF was put and 10 mL of water was added thereto. This mixture was irradiated with ultrasonic waves for one minute. A precipitated white powder was found by visual inspection for an insoluble residue. After further addition of 10 mL of water and one-minute ultrasonic wave irradiation, a precipitated pale yellow powder was found by visual inspection. This procedure was repeated until the dissolution was confirmed by visual inspection.
Into a 5 mL sample bottle, 50.2 mg of 1,1′-pyridine-2,6-diyl-bis(1,3,4,6,7,8-hexahydro-2H-pyrimido[1,2-a]pyrimidine) (abbreviation: hpp2Py) having a structure where a hydropyrimidine ring is substituted for the imidazole ring of the guanidine skeleton in 2,6tip2Py, which is an organic compound of one embodiment of the present invention, was put, and 1.0 mL of water was added thereto. The dissolution was found by visual inspection for an insoluble residue.
as §2, with “20” for “110”, “1.16” for “1.21”, “1,1′-(9,9′-spirobi[9H-fluorene]-2,7-diyl)bis(1,3,4,6,7,8-hexahydro-2H-pyrimido[1,2-a]pyrimidine) (abbreviation: 2,7hpp2SF) having a structure where a hydropyrimidine ring is substituted for the imidazole ring of the guanidine skeleton in 2,7tip2SF, which is an organic compound of one embodiment of the present invention,” for “2,6tip2Py”, “put,” for “put”, “0.5” for “10”
The precipitated white powder was found until the total amount of water reached 3.0 mL. After further addition of 0.5 mL of water and ultrasonic wave irradiation, no precipitated white powder was found.

| Structure (SMILES) | solubility in water, result in words (LC/MS) [1] | solubility at 5 min ([1]; thermodynamic from solid, filtrate quantified by LC/MS against calibration curve, read-out: solubility in 1 mL of water) [µg/mL] | solubility in water, result in words (visual inspection) [2] | weight dissolved in 1.0 mL of water ([2]; ultrasonic irradiation, visual inspection, per 1.0 mL of water) |
| --- | --- | --- | --- | --- |
| c1cc(N2CCCn3ccnc32)nc(N2CCCn3ccnc32)c1 [2,6tip2Py, 8,8′-pyridine-2,6-diyl-bis(5,6,7,8-tetrahydroimidazo[1,2-a]pyrimidine)] | very low solubility in water | 18 (≈ 56 µM) | precipitated white powder was found until the total amount of water reached 100 mL |  |
| c1ccc2c(c1)-c1ccccc1C21c2cc(N3CCCN4CCCN=C43)ccc2-c2ccc(N3CCCN4CCCN=C43)cc21 [2,7hpp2SF, 1,1′-(9,9′-spirobi[9H-fluorene]-2,7-diyl)bis(1,3,4,6,7,8-hexahydro-2H-pyrimido[1,2-a]pyrimidine)] |  |  | high solubility in water |  |
| c1ccc2c(c1)-c1ccccc1C21c2cc(N3CCCn4ccnc43)ccc2-c2ccc(N3CCCn4ccnc43)cc21 [2,7tip2SF, 8,8′-(9,9′-spirobi[9H-fluorene]-2,7-diyl)bls(5,6,7,8-tetrahydrolmidazo[1,2-a]pyrimidine)] | insoluble in water; also recorded: very low solubility in water |  | precipitated pale yellow powder was found until the total amount of water reached 100 mL |  |
| c1cc(N2CCCN3CCCN=C32)nc(N2CCCN3CCCN=C32)c1 [hpp2Py, 1,1′-pyridine-2,6-diyl-bis(1,3,4,6,7,8-hexahydro-2H-pyrimido[1,2-a]pyrimidine)] |  |  | high solubility in water | greater than or equal to 50.2 mg |
